Two molecules from patent US20240336655A1, “AMPHIPHILIC PEPTIDES FOR NUCLEIC ACID AND PROTEIN DELIVERY” (AJK BIOPHARMACEUTICAL, LLC, priority 2021, published 2024) can be followed below.

Peptide text beside a SMILES is read from it.

One data set has as its system siRNA. The data set is described as follows: Serum stability / protection of siRNA against enzymatic degradation in fetal bovine serum. Particulars: 24 hours of exposure to serum, N/P ratio of 40, compared to siRNA exposed to saline. Format: in vitro ADME. An excerpt:
Serum Stability. In order to determine the capability of the complexes to protect the siRNA against enzymatic degradation, Inventors exposed different study groups to a diluted fetal bovine serum (FBS) solution, with “naked” siRNA as a positive control, and siRNA exposed to saline as a negative control according to the previously reported procedure (Mozaffari S, Bousoik E, Amirrad F, Lamboy R, Coyle M, Hall R, Alasmari A, Mahdipoor P, Parang K, Montazeri Aliabadi H. Amphiphilic Peptides for Efficient siRNA Delivery. Polymers (Basel). 2019; 11(4) doi: 10.3390/polym11040703. PubMed PMID: 30999603; PMCID: PMC6523661).
(§1) The binding affinity for [CR4W4C] […] The toxicity of the peptides was evaluated in triple-negative breast cancer (TNBC) cells MDA-MB-231 (as a model cancer cell line) with peptide alone and siRNA complexes, and CCK assay to quantify cell viability after 48 hours.
Protection of siRNA against Enzymatic Degradation. […] After the incubation, complexes were dissociated using a 2:3 mixture of heparin (5% solution in normal saline) and EDTA (0.5 mM), and the samples were analyzed using a 1% agarose gel (with 1 μg/mL ethidium bromide) at 70 V for 20 minutes. UV illumination (Gel-Doc system, Bio-Rad; Hercules, CA) was used to visualize the gel, and the intensity of the bands (representing remaining intact siRNA) was quantified by Image J software (FIG. 8).

The subject of the next data set is MDA-MB-231 cells. The data set is described as follows: Cytotoxicity of peptides and peptide/siRNA complexes in MDA-MB-231 cells (MTT / CCK). To be noted: as compared to commercial agent lipofectamine. Format: cell-based, human. On the procedure:
as §1
The human breast cancer cell line MDA-MB-231 was purchased from American Type Culture Collection (ATCC; Manassas, VA). MDA-MB-231 was cultured in the DMEM medium. The media was supplemented with 10% (v/v) fetal bovine serum, 100 U/mL penicillin, and 100 μg/ml streptomycin. Cells were maintained in the normal condition of 37° C. and 5% CO2 under a humidified atmosphere and were sub-cultured when 80-100% confluent.
Toxicity of the Peptide/siRNA Complexes: The effect of peptides on the viability of human cell lines was evaluated by exposing the MDA-MB-231 cell lines (FIGS. 9-12) to different concentrations of peptide solution and exposing the cells to peptide/siRNA complexes prepared with different peptides at a various peptide:siRNA ratios according to the previously reported procedure by us (Mozaffari S, Bousoik E, Amirrad F, Lamboy R, Coyle M, Hall R, Alasmari A, Mahdipoor P, Parang K, Montazeri Aliabadi H. Amphiphilic Peptides for Efficient siRNA Delivery. Polymers (Basel). 2019; 11(4). doi: 10.3390/polym11040703. PubMed PMID: 30999603; PMCID: PMC6523661). […]

Take `N=C(N)NCCC[C@@H]1NC(=O)[C@H](CCCNC(=N)N)NC(=O)[C@H](CCCNC(=N)N)NC(=O)[C@H](CCCNC(=N)N)NC(=O)[C@@H](N)CSSC[C@@H](C(=O)O)NC(=O)[C@H](Cc2c[nH]c3ccccc23)NC(=O)[C@H](Cc2c[nH]c3ccccc23)NC(=O)[C@H](Cc2c[nH]c3ccccc23)NC(=O)[C@H](Cc2c[nH]c3ccccc23)NC1=O` [[CR4W4C]] (HELM PEPTIDE1{C.R.R.R.R.W.W.W.W.C}$PEPTIDE1,PEPTIDE1,1:R3-10:R3$$$V2.0; N-terminus and C-terminus assumed): the “protection of siRNA in the presence of serum” value in the data set with siRNA is “protect siRNA completely”. The toxicity entry in the data set on MDA-MB-231 cells was “without toxicity”.
On the same counts, the results for `N=C(N)NCCC[C@@H]1NC(=O)[C@H](CCCNC(=N)N)NC(=O)[C@H](CCCNC(=N)N)NC(=O)[C@H](CCCNC(=N)N)NC(=O)[C@H](CCCNC(=N)N)NC(=O)[C@@H](NC(=O)[C@H](Cc2c[nH]c3ccccc23)NC(=O)[C@H](Cc2c[nH]c3ccccc23)NC(=O)[C@H](Cc2c[nH]c3ccccc23)NC(=O)[C@@H](N)Cc2c[nH]c3ccccc23)CSSC[C@@H](C(=O)N[C@@H](Cc2c[nH]c3ccccc23)C(=O)N[C@@H](Cc2c[nH]c3ccccc23)C(=O)N[C@@H](Cc2c[nH]c3ccccc23)C(=O)N[C@@H](Cc2c[nH]c3ccccc23)C(=O)O)NC1=O` [W4[CR5C]W4] (HELM PEPTIDE1{W.W.W.W.C.R.R.R.R.R.C.W.W.W.W}$PEPTIDE1,PEPTIDE1,5:R3-11:R3$$$V2.0; N-terminus and C-terminus assumed) are “protect siRNA completely” and “without toxicity”.
